Experiments:
Conditions in all cases: 72 h
Vero E6 [1] = assay: drug sensitivity score (DSS) for viability; higher = more toxic; extreme values may be limits of the assay
U2OS [2] = assay: as above
Caco-2 [3] = assay: as above
Calu-3 [4] = assay: as above
HepG2 [5] = assay: as above
Vero E6 [6] = assay: cell viability relative to DMSO; higher = less toxic
U2OS [7] = assay: as above
Caco-2 [8] = assay: as above
Calu-3 [9] = assay: as above
HepG2 [10] = assay: as above
Vero E6 [11] = assay: relative viability EC50 (midpoint between 100% and the lowest measured viability); higher = less toxic
U2OS [12] = assay: as above
Caco-2 [13] = assay: as above
Calu-3 [14] = assay: as above
HepG2 [15] = assay: as above

O=C(Nc1ccc(C(F)(F)F)cn1)N1CCN(c2ncccc2C(F)(F)F)CC1
drug sensitivity score (Vero E6 [1]): 0
drug sensitivity score (U2OS [2]): 0
drug sensitivity score (Caco-2 [3]): 0
drug sensitivity score (Calu-3 [4]): 0
drug sensitivity score (HepG2 [5]): 0
cell viability (Vero E6 [6]; 1 nM): 102%
cell viability (Vero E6 [6]; 10 nM): 93.9%
cell viability (Vero E6 [6]; 100 nM): 94.9%
cell viability (Vero E6 [6]; 1000 nM): 101%
cell viability (Vero E6 [6]; 10000 nM): 103%
cell viability (U2OS [7]; 1 nM): 94.1%
cell viability (U2OS [7]; 10 nM): 98.5%
cell viability (U2OS [7]; 100 nM): 102%
cell viability (U2OS [7]; 1000 nM): 99.4%
cell viability (U2OS [7]; 10000 nM): 100%
cell viability (Caco-2 [8]; 1 nM): 97.9%
cell viability (Caco-2 [8]; 10 nM): 99.3%
cell viability (Caco-2 [8]; 100 nM): 97%
cell viability (Caco-2 [8]; 1000 nM): 96%
cell viability (Caco-2 [8]; 10000 nM): 92.1%
cell viability (Calu-3 [9]; 1 nM): 99.3%
cell viability (Calu-3 [9]; 10 nM): 104%
cell viability (Calu-3 [9]; 100 nM): 93%
cell viability (Calu-3 [9]; 1000 nM): 100%
cell viability (Calu-3 [9]; 10000 nM): 92.8%
cell viability (HepG2 [10]; 1 nM): 108%
cell viability (HepG2 [10]; 10 nM): 91.7%
cell viability (HepG2 [10]; 100 nM): 105%
cell viability (HepG2 [10]; 1000 nM): 98.4%
cell viability (HepG2 [10]; 10000 nM): 101%
relative viability EC50 (Vero E6 [11]): > 10 µM
relative viability EC50 (U2OS [12]): > 10 µM
relative viability EC50 (Caco-2 [13]): > 10 µM
relative viability EC50 (Calu-3 [14]): > 10 µM
relative viability EC50 (HepG2 [15]): > 10 µM

C[C@@H](CN1CC(=O)NC(=O)C1)N1CC(=O)NC(=O)C1 [dexrazoxane]
drug sensitivity score (Vero E6 [1]): 0
drug sensitivity score (U2OS [2]): 0
drug sensitivity score (Caco-2 [3]): 0
drug sensitivity score (Calu-3 [4]): 0
drug sensitivity score (HepG2 [5]): 0
cell viability (Vero E6 [6]; 1 nM): 105%
cell viability (Vero E6 [6]; 10 nM): 101%
cell viability (Vero E6 [6]; 100 nM): 103%
cell viability (Vero E6 [6]; 1000 nM): 93.8%
cell viability (Vero E6 [6]; 10000 nM): 99.7%
cell viability (U2OS [7]; 1 nM): 96.9%
cell viability (U2OS [7]; 10 nM): 109%
cell viability (U2OS [7]; 100 nM): 96.7%
cell viability (U2OS [7]; 1000 nM): 102%
cell viability (U2OS [7]; 10000 nM): 98.6%
cell viability (Caco-2 [8]; 1 nM): 89.3%
cell viability (Caco-2 [8]; 10 nM): 103%
cell viability (Caco-2 [8]; 100 nM): 90.4%
cell viability (Caco-2 [8]; 1000 nM): 105%
cell viability (Caco-2 [8]; 10000 nM): 90.3%
cell viability (Calu-3 [9]; 1 nM): 104%
cell viability (Calu-3 [9]; 10 nM): 92.2%
cell viability (Calu-3 [9]; 100 nM): 95.1%
cell viability (Calu-3 [9]; 1000 nM): 96.9%
cell viability (Calu-3 [9]; 10000 nM): 101%
cell viability (HepG2 [10]; 1 nM): 93.9%
cell viability (HepG2 [10]; 10 nM): 106%
cell viability (HepG2 [10]; 100 nM): 98.2%
cell viability (HepG2 [10]; 1000 nM): 92.2%
cell viability (HepG2 [10]; 10000 nM): 100%
relative viability EC50 (Vero E6 [11]): > 10 µM
relative viability EC50 (U2OS [12]): > 10 µM
relative viability EC50 (Caco-2 [13]): > 10 µM
relative viability EC50 (Calu-3 [14]): > 10 µM
relative viability EC50 (HepG2 [15]): > 10 µM

O[C@H]([C@H](O)[C@@H]1CO1)[C@H]1CO1 [dianhydrogalactitol]
drug sensitivity score (Vero E6 [1]): 0
drug sensitivity score (U2OS [2]): 0
drug sensitivity score (Caco-2 [3]): 0
drug sensitivity score (Calu-3 [4]): 0
drug sensitivity score (HepG2 [5]): 0
cell viability (Vero E6 [6]; 1 nM): 97.6%
cell viability (Vero E6 [6]; 10 nM): 96.9%
cell viability (Vero E6 [6]; 100 nM): 93.2%
cell viability (Vero E6 [6]; 1000 nM): 97.2%
cell viability (Vero E6 [6]; 10000 nM): 99.9%
cell viability (U2OS [7]; 1 nM): 99.1%
cell viability (U2OS [7]; 10 nM): 104%
cell viability (U2OS [7]; 100 nM): 97.2%
cell viability (U2OS [7]; 1000 nM): 100%
cell viability (U2OS [7]; 10000 nM): 100%
cell viability (Caco-2 [8]; 1 nM): 97.4%
cell viability (Caco-2 [8]; 10 nM): 95.8%
cell viability (Caco-2 [8]; 100 nM): 101%
cell viability (Caco-2 [8]; 1000 nM): 104%
cell viability (Caco-2 [8]; 10000 nM): 95.7%
cell viability (Calu-3 [9]; 1 nM): 103%
cell viability (Calu-3 [9]; 10 nM): 107%
cell viability (Calu-3 [9]; 100 nM): 99.3%
cell viability (Calu-3 [9]; 1000 nM): 95.4%
cell viability (Calu-3 [9]; 10000 nM): 94.2%
cell viability (HepG2 [10]; 1 nM): 99.4%
cell viability (HepG2 [10]; 10 nM): 101%
cell viability (HepG2 [10]; 100 nM): 104%
cell viability (HepG2 [10]; 1000 nM): 90.8%
cell viability (HepG2 [10]; 10000 nM): 91.1%
relative viability EC50 (Vero E6 [11]): > 10 µM
relative viability EC50 (U2OS [12]): > 10 µM
relative viability EC50 (Caco-2 [13]): > 10 µM
relative viability EC50 (Calu-3 [14]): > 10 µM
relative viability EC50 (HepG2 [15]): > 10 µM

Source: the supplement of paper PMC13380429
